Source: article PMC5717343 (Open Biology, 2017)

Test system: PrP^Sc in iPK1/2 cells
Format: cell-based

## dextran sulfate
  concentration of apparent curing: greater than 1 × 10^−6 M
  effect on PrP^Sc levels / prion infection (curing): dose-dependent decrease in PrP^Sc
read-out: apparent IC50, reduction of PrP^Sc
  IC50: ~500 nM
